29 molecules from US11479539B2, “Small molecule modulators of the BTB domain of Keap1” (MedImmune Limited, priority 2017, dated 2022) can be followed below.

What is called EC50 is the concentration needed to bring the measured effect to its halfway point. A higher EC50 goes with a less potent agent.

Chain of Keap1 (Q14145 whole entry): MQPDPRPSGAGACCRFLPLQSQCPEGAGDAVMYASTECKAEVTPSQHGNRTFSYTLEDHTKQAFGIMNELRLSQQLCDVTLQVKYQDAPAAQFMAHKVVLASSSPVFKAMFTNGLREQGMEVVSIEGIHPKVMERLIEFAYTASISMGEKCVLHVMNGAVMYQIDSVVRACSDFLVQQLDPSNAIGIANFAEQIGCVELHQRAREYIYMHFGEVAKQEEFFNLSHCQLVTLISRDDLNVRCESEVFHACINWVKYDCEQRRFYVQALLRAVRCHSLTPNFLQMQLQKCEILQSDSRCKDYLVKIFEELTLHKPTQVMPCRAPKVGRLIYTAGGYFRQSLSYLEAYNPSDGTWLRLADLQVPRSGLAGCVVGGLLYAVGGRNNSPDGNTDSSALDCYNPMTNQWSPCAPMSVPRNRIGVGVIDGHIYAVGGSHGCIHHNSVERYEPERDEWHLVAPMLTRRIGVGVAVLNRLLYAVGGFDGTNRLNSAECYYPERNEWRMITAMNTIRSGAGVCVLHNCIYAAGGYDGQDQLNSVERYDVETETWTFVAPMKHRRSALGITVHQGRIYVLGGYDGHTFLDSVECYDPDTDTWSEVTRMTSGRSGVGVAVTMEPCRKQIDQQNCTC

The assay concerns the target Keap1 (Homo sapiens (Human), UniProt Q14145). The assay can be described thus: HEK293 ARE luciferase assay. The settings on record: HEK-293 ARE firefly luciferase transiently transfected cells; 18 h incubation; mean of 1 to 20 individual measurements. It is filed as cell-based. The text has this:
The purpose of this assay is to identify small molecule inhibitors of Keap1, preventing Keap1 binding to Nrf2, and thus activating the Nrf2 signalling pathway in HEK-293 ARE firefly luciferase transiently transfected cells. HEK-293 cells express wild-type Keap1 protein and therefore have low constitutive levels of Nrf2 protein and Nrf2-dependent transcription. […] When Keap1 is inhibited, Nrf2 signalling is activated, and there is an increase in luciferase expression and light emission.
Cryopreserved HEK ARE luciferase cells were rapidly thawed in a 37° C. water bath and resuspended in assay culture medium (DMEM, 10% FCS, 2 mM L-glutamine). The cell suspension was pelleted by centrifugation ([…]; 300 g) using a Heraeus benchtop centrifuge. Supernatant was removed and the pellet was gently resuspended in 5 mL culture medium per vial. Cell viability and cell number was measured using an Invitrogen Countess automated cell counter (typical viability 80%), and cells were diluted to a density of 5.0×10^5 cells/mL.
Cells were then plated out into white 384-well plates (Greiner 781080) using a Multidrop Combi, 20 μL/well, to give 10,000 cells/well. As appropriate, test compounds had been added to wells prior to dispensing cells using an Echo 555 acoustic dispenser (Labcyte). Plates were left at room temperature for ˜10 min to promote even cell settling across the plate before incubation for 18 h at 37° C., 95% humidity and 5% CO2.
After 18 h incubation, plates were removed from the incubator and allowed to cool to room temperature for 30 min, before 10 μL per well SteadyGlo reagent detection reagent was added (as per manufacturer's instructions, 10 min before required 10 mL room temperature buffer was added to one vial of lyophilised substrate and inverted several times to fully dissolve). Plates were then incubated in the dark for 30 min before reading on an Envision plate reader.
Compounds were acoustically dispensed using a Labcyte Echo, using a 10 pt dose curve with a top concentration of 100 μM. Assay wells were backfilled with DMSO to a total of 60 nL to maintain 0.3% (v/v) DMSO through the assay.
The Stimulator signal was defined using 30 μM tert-butyl hydroquinone (tBHQ) and the Neutral signal by DMSO vehicle control. All calculations were performed using GeneData.
In IBIS Column Calculations, Assay Type was set to ‘Stimulator’, and the Activity Threshold was set to 50.
The mean values were calculated from anywhere from 1 to 20 individual measurements.
Molecule `COC1(c2ncccc2C(F)F)C=C(C#N)C(=O)C(C)(C)C1` (single isomer, unassigned) [Compound 5, 3-(3-(difluoromethyl)pyridin-2-yl)-3-methoxy-5,5-dimethyl-6-oxocyclohex-1-enecarbonitrile] displayed a concentration for a half-maximal effect (EC50) of 10 nM. The result for `[2H]C([2H])([2H])OC1(c2cccc(-c3cnn(C)c3)n2)C=C(C#N)C(=O)C(C)(C)C1` (single isomer, unassigned) [Compound 14, 5,5-Dimethyl-3-[6-(1-methylpyrazol-4-yl)-2-pyridyl]-6-oxo-3-(trideuterio-methoxy)cyclohexene-1-carbonitrile] reads 12 nM; that for `COC1(c2ncccc2C(F)(F)F)C=C(C#N)C(=O)C(C)(C)C1` (single isomer, unassigned) [Compound 15, 3-methoxy-5,5-dimethyl-6-oxo-3-(3-(trifluoromethyl)pyridin-2-yl)cyclohex-1-enecarbonitrile], 24 nM. In turn, `COC1(c2ncccc2-c2cnn(C)c2)C=C(C#N)C(=O)C(C)(C)C1` (single isomer, unassigned) [Compound 23, 3-methoxy-5,5-dimethyl-3-(3-(1-methyl-1H-pyrazol-4-yl)pyridin-2-yl)-6-oxocyclohex-1-enecarbonitrile] had an EC50 of 56 nM.

`COC1(c2ncc(F)cc2C(F)(F)F)C=C(C#N)C(=O)C(C)(C)C1` (single isomer, unassigned) [Compound 26, 3-(5-fluoro-3-(trifluoromethyl)py-ridin-2-yl)-3-methoxy-5,5-dimethyl-6-oxocyclohex-1-enecarbonitrile]: the midpoint of the response, the EC50, lay at 24 nM. The result for `COC1(c2ccc(F)cn2)C=C(C#N)C(=O)C(C)(C)C1` (single isomer, unassigned) [Compound 27, 3-(5-fluoropyridin-2-yl)-3-methoxy-5,5-dimethyl-6-oxocyclohex-1-enecarbonitrile] reads 180 nM.

`COC1(c2ncc(F)cc2C)C=C(C#N)C(=O)C(C)(C)C1` (single isomer, unassigned) [Compound 31, 3-(5-fluoro-3-methylpyridin-2-yl)-3-methoxy-5,5-dimethyl-6-oxocyclohex-1-enecarbonitrile] registered a 50% effective concentration (EC50) of 19 nM. Under `COC1(c2ccc(Cl)cn2)C=C(C#N)C(=O)C(C)(C)C1` (single isomer, unassigned) [Compound 32, 3-(5-chloropyridin-2-yl)-3-methoxy-5,5-dimethyl-6-oxocyclohex-1-enecarbonitrile] stands 55 nM; under `COC1(c2nc(C(F)(F)F)cs2)C=C(C#N)C(=O)C(C)(C)C1` (single isomer, unassigned) [Compound 33, 3-methoxy-5,5-dimethyl-6-oxo-3-(4-(tri-fluoromethyl)thia-zol-2-yl)cyclohex-1-enecarbonitrile], 383 nM; under `COC1(c2sccc2C)C=C(C#N)C(=O)C(C)(C)C1` (single isomer, unassigned) [Compound 34, 3-methoxy-5,5-dimethyl-3-(3-methylthiophen-2-yl)-6-oxocyclohex-1-enecarbonitrile], 12 nM. The result for `CCOC1(c2ncccc2C(F)(F)F)C=C(C#N)C(=O)C(C)(C)C1` (single isomer, unassigned) [Compound 35, 3-ethoxy-5,5-dimethyl-6-oxo-3-(3-(trifluoromethyl)py-ridin-2-yl)cyclohex-1-enecarbonitrile] reads 39 nM. Under `COC1(c2nc(C)cs2)C=C(C#N)C(=O)C(C)(C)C1` (single isomer, unassigned) [Compound 36, 3-methoxy-5,5-dimethyl-3-(4-methylthiazol-2-yl)-6-oxocyclohex-1-enecarbonitrile] stands 96 nM. Turning to `CCOC1(c2ccc(F)cn2)C=C(C#N)C(=O)C(C)(C)C1` (single isomer, unassigned) [Compound 37, 3-ethoxy-3-(5-fluoropyridin-2-yl)-5,5-dimethyl-6-oxocyclohex-1-enecarbonitrile], a half-maximal effect (EC50) was put at 86 nM. The result for `COC1(c2nccs2)C=C(C#N)C(=O)C(C)(C)C1` (single isomer, unassigned) [Compound 39, 3-methoxy-5,5-dimethyl-6-oxo-3-(thiazol-2-yl)cyclohex-1-enecarbonitrile] reads 125 nM; that for `COC1(c2ncccc2OC(F)(F)F)C=C(C#N)C(=O)C(C)(C)C1` (single isomer, unassigned) [Compound 41, 3-methoxy-5,5-dimethyl-6-oxo-3-(3-(trifluoromethoxy)py-ridin-2-yl)cyclohex-1-enecarbonitrile], 11 nM. Under `COC1(c2scnc2C)C=C(C#N)C(=O)C(C)(C)C1` (single isomer, unassigned) [Compound 43, 3-methoxy-5,5-dimethyl-3-(4-methylthiazol-5-yl)-6-oxocyclohex-1-enecarbonitrile] stands 129 nM.

`COC1(c2ncc(F)cc2F)C=C(C#N)C(=O)C(C)(C)C1` (single isomer, unassigned) [Compound 44, 3-(3,5-difluoropyridin-2-yl)-3-methoxy-5,5-dimethyl-6-oxocyclohex-1-enecarbonitrile] showed a 50% effective concentration (EC50) of 37 nM. The result for `COC1(c2ncc(Cl)cc2C(F)F)C=C(C#N)C(=O)C(C)(C)C1` (single isomer, unassigned) [Compound 45, 3-(5-chloro-3-(difluoromethyl)py-ridin-2-yl)-3-methoxy-5,5-dimethyl-6-oxocyclohex-1-enecarbonitrile] reads 28 nM.

In turn, `COC1(c2ncc(F)cc2OC(F)F)C=C(C#N)C(=O)C(C)(C)C1` (single isomer, unassigned) [Compound 47, 3-(3-(difluoromethoxy)-5-fluoropyridin-2-yl)-3-methoxy-5,5-dimethyl-6-oxocyclohex-1-enecarbonitrile] yielded a concentration for a half-maximal effect (EC50) of 8 nM. Under `COC1(c2ncc(F)cc2Br)C=C(C#N)C(=O)C(C)(C)C1` (single isomer, unassigned) [Compound 48, 3-(3-bromo-5-fluoropyridin-2-yl)-3-methoxy-5,5-dimethyl-6-oxocyclohex-1-enecarbonitrile] stands 6 nM; under `COC1(c2cccc(-c3cnn(C)c3)n2)C=C(C#N)C(=O)C2(CC2)C1` (single isomer, unassigned) [Compound 49, 7-methoxy-7-(6-(1-methyl-1H-pyrazol-4-yl)pyridin-2-yl)-4-oxospiro[2.5]oct-5-ene-5-carbonitrile], 138 nM. `COC1(c2cccc(-c3cnc(C)nc3)n2)C=C(C#N)C(=O)C2(CC2)C1` (single isomer, unassigned) [Compound 50, 7-methoxy-7-(6-(2-methylpyrimidin-5-yl)pyridin-2-yl)-4-oxospiro[2.5]oct-5-ene-5-carbonitrile]: it took 30 nM to reach a half-maximal effect (EC50). The result for `COC1(c2cccc(-c3cncnc3)n2)C=C(C#N)C(=O)C2(CC2)C1` (single isomer, unassigned) [Compound 51, 7-methoxy-4-oxo-7-(6-(pyrimidin-5-yl)pyridin-2-yl)spiro[2.5]oct-5-ene-5-carbonitrile] reads 48 nM; that for `COC1(c2cccc(-c3c(C)noc3C)n2)C=C(C#N)C(=O)C2(CC2)C1` (single isomer, unassigned) [Compound 52, 7-(6-(3,5-dimethylisoxazol-4-yl)pyridin-2-yl)-7-methoxy-4-oxospiro[2.5]oct-5-ene-5-carbonitrile], 74 nM. As to `COC1(c2cccc(-c3ccnn3C)n2)C=C(C#N)C(=O)C2(CC2)C1` (single isomer, unassigned) [Compound 53, 7-methoxy-7-(6-(1-methyl-1H-pyrazol-5-yl)pyridin-2-yl)-4-oxospiro[2.5]oct-5-ene-5-carbonitrile], the EC50 is 133 nM. Take `COC1(c2cncc(C)n2)C=C(C#N)C(=O)C2(CC2)C1` (single isomer, unassigned) [Compound 54, 7-methoxy-7-(6-methylpyrazin-2-yl)-4-oxospiro[2.5]oct-5-ene-5-carbonitrile]: the concentration for a half-maximal effect (EC50) was 363 nM. Under `COC1(c2ccccn2)C=C(C#N)C(=O)C2(CC2)C1` (single isomer, unassigned) [Compound 56, 7-methoxy-4-oxo-7-(pyridin-2-yl)spiro[2.5]oct-5-ene-5-carbonitrile] stands 179 nM; under `COC1(c2ncccc2C(F)(F)F)C=C(C#N)C(=O)C2(CC2)C1` (single isomer, unassigned) [Compound 57, 7-methoxy-4-oxo-7-[3-(trifluoromethyl)pyridin-2-yl]spiro[2.5]oct-5-ene-5-carbonitrile], 47 nM; under `COC1(c2nc(C)cs2)C=C(C#N)C(=O)C2(CC2)C1` (single isomer, unassigned) [Compound 59, 7-methoxy-4-7-(4-methyl-1,3-thiazol-2-yl)-4-oxospiro[2.5]oct-5-ene-5-carbonitrile], 261 nM.
